# ChEMBL document CHEMBL1201862, “PubChem BioAssay data set” (2004)
# Activity calls are given as the source filed them.
# Tests used:
# [1] = Luminescence Cell-Based Dose Response Follow up to Identify Inhibitors of Platelet Dense Granule Release. [Related pubchem assays (depositor defined):AID1663, AID1678, AID1889, AID2519]; type: functional
# [2] = blockers of SFLLRN-triggered platelet ATP secretion – cell-based, human platelets, luminescence, dry powder, dose response (AID 493100); type: functional
# [3] = SFLLRN-induced P-Selectin Platelet Surface Expression Measured in Cell-Based System Using Flow Cytometry - 2016-03_Inhibitor_Dose_DryPowder_Activity_Set3. [Related pubchem assays (depositor defined):AID1678]; type: functional
# [4] = inhibitors of clade B AD8 Env fusion, dose response, cell-based, cherry-pick (AID 652062); type: functional;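 also: luciferase signal from cell-cell fusion driven by HIV-1 clade B AD8 Env; potency is for inhibitors of fusion seen as a drop in luminescence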
# [5] = off-target signal loss in HeLa-CEM21 co-culture – HeLa F-luc CTL cells, cherry-picked, counter-screen for HIV-1 Env fusion inhibitor project, dose response (AID 652040); type: functional, cell-based;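 also: potency for signal decrease marking cytotoxic or nonspecific inhibition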
# [6] = ZM109 Env clade C HIV-1 fusion inhibitors, dose response, HeLa effector, CEM target cells, luciferase, cherry-pick (AID 652058); type: functional, cell-based
# HEK293 [7] = test: cells; conditions: Homo sapiens
# [8] = inhibitors of HIV Env-driven cell fusion, dose response, cherry-pick (AID 652057); type: functional, cell-based
# HEK293 [9] = test: cells; conditions: Homo sapiens; remark: listed apart in the source
# Cytochrome P450 2C19 = Cytochrome P450 2C19 (Homo sapiens, UniProt P33261); test: Cytochrome panel assay with activity outcomes. Panel member name: p450-cyp2c19 Compounds with AC50 equal or less than 10 uM are considered active; type: functional; conditions: read-out: AC50
# [10] = target: T1, Microphthalmia-associated transcription factor (Homo sapiens, UniProt O75030); test: TRPM1 promoter luciferase signal decrease, dose response, MITF inhibitor project, cell-based, SK-MEL-5, cherry-picked, set 3 (AID 493073); type: functional
# T1 sequence (O75030 whole entry): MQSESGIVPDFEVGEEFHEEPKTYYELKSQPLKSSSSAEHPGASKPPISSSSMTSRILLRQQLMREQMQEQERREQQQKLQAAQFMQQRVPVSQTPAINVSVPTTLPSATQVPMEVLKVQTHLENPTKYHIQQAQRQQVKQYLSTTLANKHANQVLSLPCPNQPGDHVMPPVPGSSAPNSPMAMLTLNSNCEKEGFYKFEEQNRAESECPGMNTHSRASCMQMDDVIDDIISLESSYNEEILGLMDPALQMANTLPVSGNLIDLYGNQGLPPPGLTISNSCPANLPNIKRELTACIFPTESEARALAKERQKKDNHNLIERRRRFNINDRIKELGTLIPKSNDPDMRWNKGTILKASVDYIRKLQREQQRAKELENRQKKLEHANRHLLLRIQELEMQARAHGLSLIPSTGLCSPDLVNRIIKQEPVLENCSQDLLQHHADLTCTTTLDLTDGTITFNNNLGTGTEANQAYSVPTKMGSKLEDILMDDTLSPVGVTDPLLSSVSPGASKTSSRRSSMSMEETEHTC
# HT-1080 = test: cytotoxicity in HT1080 fibrosarcoma cells, cell-based, fluorescence readout (AID 620); type: functional; conditions: Homo sapiens
# Estrogen receptor = target: T2, Estrogen receptor (Homo sapiens, UniProt P03372);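 also: potency for inhibiting coactivator peptide recruitment to the receptor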
# T2 sequence (P03372 whole entry): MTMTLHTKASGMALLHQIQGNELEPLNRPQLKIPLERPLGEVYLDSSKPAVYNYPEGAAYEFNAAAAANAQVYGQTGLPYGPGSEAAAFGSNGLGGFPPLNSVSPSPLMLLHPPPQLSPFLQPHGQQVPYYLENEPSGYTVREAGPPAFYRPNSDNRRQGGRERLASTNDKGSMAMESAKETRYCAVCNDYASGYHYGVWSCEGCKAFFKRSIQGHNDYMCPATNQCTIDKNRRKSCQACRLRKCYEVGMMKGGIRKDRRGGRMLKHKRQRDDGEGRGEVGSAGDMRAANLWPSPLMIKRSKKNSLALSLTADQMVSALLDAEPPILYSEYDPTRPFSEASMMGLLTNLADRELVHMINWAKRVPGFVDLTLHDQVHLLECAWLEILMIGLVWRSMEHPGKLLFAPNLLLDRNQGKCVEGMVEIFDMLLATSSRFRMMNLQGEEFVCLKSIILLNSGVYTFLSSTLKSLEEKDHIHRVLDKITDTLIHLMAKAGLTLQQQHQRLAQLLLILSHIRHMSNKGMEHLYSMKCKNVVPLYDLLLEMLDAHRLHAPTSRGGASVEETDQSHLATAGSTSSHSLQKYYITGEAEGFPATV
# Cytochrome P450 2D6 = Cytochrome P450 2D6 (Homo sapiens, UniProt P10635);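 also: CYP2D6 member of a cytochrome P450 panel assay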
# H4 [11] = test: Inhibitors of Prion Protein 5' UTR mRNA Measured in Cell-Based System Using Plate Reader - 2078-01_Inhibitor_Dose_DryPowder_Activity. [Related pubchem assays (depositor defined):AID488894]; type: functional; conditions: Homo sapiens
# H4 [12] = test: inhibitors of control reporter signal in H4 cells – cell-based, plate reader, dry powder samples, counter-screen for prion reporter project, dose response (AID 540255); type: functional; conditions: Homo sapiens
# Streptococcus = test: Group A Streptococcus viability loss, dose response, counter-screen for streptokinase expression inhibitor project, luminescence, BacTiterGlo (AID 1915); type: functional, organism-based;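 also: potency for reduction of bacterial viability or growth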
# [13] = tested on: Streptococcus sp. 'group A'; test: growth inhibition of control SK(-) GAS strain, dose response, counter-screen for streptokinase expression inhibitor project, luminescence, kanamycin, BacTiterGlo, confirmation (AID 1900); type: functional, organism-based
# H4 [14] = test: Amyloid Precursor 5' UTR neuroblastoma cell reporter line Measured in Cell-Based System Using Plate Reader - 2078-04_Inhibitor_Dose_DryPowder_Activity. [Related pubchem assays (depositor defined):AID488894]; type: functional; conditions: Homo sapiens
# cells = type: functional
# [15] = growth suppression of beta-catenin-knockout colon cells, dose response, cell-based, HCT116, human colon tumor (AID 1045); type: functional;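 also: HCT116 colon tumor cells with beta catenin knocked out; cells exposed to compound for 60 hours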
# Streptokinase A = target: T3, Streptokinase A (Streptococcus pyogenes serotype M1, UniProt P10520); test: S. pyogenes streptokinase expression inhibitors, potency, dose response, plasminogen activation absorbance, OD405 (AID 1914); type: functional, Streptococcus pyogenes M1 GAS;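 also: secreted streptokinase activity via plasminogen activation per viability signal from cell pellet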
# T3 sequence (P10520 whole entry): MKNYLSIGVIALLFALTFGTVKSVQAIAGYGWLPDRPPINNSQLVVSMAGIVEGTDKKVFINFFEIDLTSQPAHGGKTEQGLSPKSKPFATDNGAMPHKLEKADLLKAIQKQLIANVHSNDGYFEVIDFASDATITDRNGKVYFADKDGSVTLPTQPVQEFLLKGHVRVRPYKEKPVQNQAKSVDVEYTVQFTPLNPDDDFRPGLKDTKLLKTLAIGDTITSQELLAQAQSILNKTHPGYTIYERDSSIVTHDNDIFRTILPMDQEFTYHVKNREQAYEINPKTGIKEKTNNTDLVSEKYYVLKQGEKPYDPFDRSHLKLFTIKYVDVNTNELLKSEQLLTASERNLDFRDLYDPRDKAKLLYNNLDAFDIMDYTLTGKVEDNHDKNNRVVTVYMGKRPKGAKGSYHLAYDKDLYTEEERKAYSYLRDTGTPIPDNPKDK
# [16] = inhibitors of intracellular T. cruzi replication, confirmation, NIH3T3 host cells, beta-gal luminescence (AID 2044); type: functional, cell-based;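 also: intracellular parasites grown in NIH/3T3 mouse fibroblasts as host cells; luminescent beta-galactosidase reporter signal from transgenic T. cruzi replicating inside host cells; inhibitors lower the luminescence signal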
# [17] = target: T4, Heat shock factor protein 1 (Mus musculus, UniProt P38532); test: inhibition of MG132-induced HSE-luciferase signal, confirmation, cell-based, NIH3T3, luminescence, dose retest (AID 2382); type: functional;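 also: NIH3T3 fibroblasts with HSF1-driven luciferase reporter stressed by proteasome inhibitor MG132; luminescence from HSF1-driven luciferase expression after 8 hours of MG132 stress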
# T4 sequence (P38532 whole entry): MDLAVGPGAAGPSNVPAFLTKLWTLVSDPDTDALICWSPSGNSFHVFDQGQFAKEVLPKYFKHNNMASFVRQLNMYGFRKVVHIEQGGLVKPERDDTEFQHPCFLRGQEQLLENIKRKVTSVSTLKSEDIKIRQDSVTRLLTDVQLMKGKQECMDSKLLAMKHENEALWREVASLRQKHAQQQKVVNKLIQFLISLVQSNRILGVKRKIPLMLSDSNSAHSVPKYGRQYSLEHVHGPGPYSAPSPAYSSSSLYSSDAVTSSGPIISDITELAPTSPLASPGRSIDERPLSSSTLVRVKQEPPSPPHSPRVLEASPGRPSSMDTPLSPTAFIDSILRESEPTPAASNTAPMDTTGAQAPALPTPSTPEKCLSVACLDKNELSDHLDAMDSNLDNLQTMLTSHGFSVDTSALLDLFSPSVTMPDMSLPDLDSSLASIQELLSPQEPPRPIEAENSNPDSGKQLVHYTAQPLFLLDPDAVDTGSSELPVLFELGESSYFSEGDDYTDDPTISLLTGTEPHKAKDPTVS
# [18] = cytotoxicity toward NIH3T3 fibroblasts, dose response, counter-screen, cell-based, ATP luminescence, mouse fibroblasts (AID 2010); type: functional;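 also: cells exposed to compound for about 90 hours before reading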
# [19] = THP-1 cell cytotoxicity, dose response, cytotoxicity control for non-replicating M. tuberculosis project (AID 489025); type: functional
# [20] = Vero E6 cell cytotoxicity, dose response, cytotoxicity control for non-replicating M. tuberculosis project, secondary assay (AID 492998); type: functional, VeroE6; conditions: Vero C1008
# [21] = cytotoxicity in HEK-293T cells, dose response, cytotoxicity control for TCR NF-kB inhibitor project, luminescence, T-cell screen hits (AID 489026); type: functional, cell-based;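 also: cells exposed to compound about 14 hours before the viability readout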
# [22] = target: Luciferin 4-monooxygenase (Photinus pyralis, UniProt P08659); test: Counter Screen for Luciferase-based Assay Positives. [Related pubchem assays: 620, 618, 411 ]
# [23] = growth suppression of PTEN-null colon cells, dose response, cell-based, HCT116 PTEN knockout (AID 1047); type: functional;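 also: HCT116 colon tumor cells with PTEN knocked out; cells exposed to compound for 60 hours before readout; potency for loss of cell viability measured by luminescence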
# Sequence of Luciferin 4-monooxygenase (P08659 whole entry): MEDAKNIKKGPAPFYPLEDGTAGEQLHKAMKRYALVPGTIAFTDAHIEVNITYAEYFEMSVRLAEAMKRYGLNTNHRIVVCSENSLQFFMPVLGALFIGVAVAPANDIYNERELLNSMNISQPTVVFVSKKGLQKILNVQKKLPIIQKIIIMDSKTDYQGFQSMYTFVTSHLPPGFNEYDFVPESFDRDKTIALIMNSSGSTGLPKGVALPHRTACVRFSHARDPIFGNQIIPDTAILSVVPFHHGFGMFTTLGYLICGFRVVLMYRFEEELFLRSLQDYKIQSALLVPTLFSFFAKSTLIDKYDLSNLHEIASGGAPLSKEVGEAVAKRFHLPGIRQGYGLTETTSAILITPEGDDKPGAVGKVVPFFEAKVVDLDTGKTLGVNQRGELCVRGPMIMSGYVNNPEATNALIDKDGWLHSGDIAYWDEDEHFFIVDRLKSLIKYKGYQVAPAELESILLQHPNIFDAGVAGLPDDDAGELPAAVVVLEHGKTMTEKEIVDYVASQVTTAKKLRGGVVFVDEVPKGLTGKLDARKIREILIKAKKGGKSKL
# Sequence of Cytochrome P450 2C19 (P33261 whole entry): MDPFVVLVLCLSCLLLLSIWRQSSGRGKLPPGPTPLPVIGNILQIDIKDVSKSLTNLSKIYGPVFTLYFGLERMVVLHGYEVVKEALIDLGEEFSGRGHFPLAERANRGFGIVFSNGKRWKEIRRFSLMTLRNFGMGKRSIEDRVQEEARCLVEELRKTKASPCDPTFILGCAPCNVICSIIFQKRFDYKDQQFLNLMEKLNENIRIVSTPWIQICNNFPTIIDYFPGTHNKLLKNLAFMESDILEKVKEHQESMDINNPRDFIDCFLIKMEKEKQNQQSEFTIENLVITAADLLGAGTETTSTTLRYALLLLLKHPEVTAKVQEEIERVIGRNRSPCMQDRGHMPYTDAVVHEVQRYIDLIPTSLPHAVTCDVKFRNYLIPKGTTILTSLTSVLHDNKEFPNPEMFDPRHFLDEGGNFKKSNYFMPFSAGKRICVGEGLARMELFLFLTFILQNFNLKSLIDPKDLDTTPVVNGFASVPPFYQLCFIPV
# Sequence of Cytochrome P450 2D6 (P10635 whole entry): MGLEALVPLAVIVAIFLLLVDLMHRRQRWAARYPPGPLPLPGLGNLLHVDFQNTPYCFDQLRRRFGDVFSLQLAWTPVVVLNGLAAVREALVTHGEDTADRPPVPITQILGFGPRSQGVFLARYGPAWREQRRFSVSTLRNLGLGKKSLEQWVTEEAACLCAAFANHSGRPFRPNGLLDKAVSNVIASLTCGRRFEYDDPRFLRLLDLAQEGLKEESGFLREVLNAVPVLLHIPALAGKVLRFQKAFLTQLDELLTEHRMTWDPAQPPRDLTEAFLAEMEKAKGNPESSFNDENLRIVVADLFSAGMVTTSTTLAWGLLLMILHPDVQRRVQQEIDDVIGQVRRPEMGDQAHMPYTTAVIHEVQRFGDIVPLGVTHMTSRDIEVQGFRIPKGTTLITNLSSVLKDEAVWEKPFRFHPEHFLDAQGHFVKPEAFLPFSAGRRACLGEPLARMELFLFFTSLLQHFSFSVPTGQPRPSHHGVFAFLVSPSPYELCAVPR
structure (smiles),measurement,setting,value
COc1ccc(C(=O)Nc2cccc(NC(C)=O)c2)cc1,EC50,[1],3.96 µM (active)
same,AC50,[2],12.8 µM (active)
same,AC50,[3],3.53 µM (active)
COc1ccc(Cl)cc1CC1(C)C(=O)Nc2ccc(S(=O)(=O)NC3CCCCC3)cc21 (stereo not given),AC50,[4],3.04 µM (active)
same,AC50,[5],1.07 µM (active)
same,AC50,[6],0.768 µM (active)
same,EC50,HEK293 [7],> 59.6 µM (inactive)
same,AC50,[8],0.749 µM (active)
same,EC50,HEK293 [9],> 59.6 µM (inactive)
Cc1ccc(C(=O)N/N=C/c2ccc([N+](=O)[O-])s2)cc1,AC50,Cytochrome P450 2C19,39.8 µM (inconclusive)
same,AC50,[10],2.2 µM (active)
same,EC50,HT-1080,> 50 µM (not active)
same,IC50,Estrogen receptor,21.1 µM (active)
same,AC50,Cytochrome P450 2D6,15.8 µM (inconclusive)
same,AC50,H4 [11],0.875 µM (active)
same,AC50,H4 [12],3.18 µM (active)
same,EC50,Streptococcus,14.3 µM (active)
same,EC50,[13],5.16 µM (active)
same,AC50,H4 [14],3 µM (active)
same,IC50,cells,5.2 µM (active)
same,EC50,[15],3.5 µM (active)
same,EC50,Streptokinase A,> 150 µM (not active)
same,EC50,[16],0.72 µM (active)
same,EC50,[17],0.324 µM (active)
same,EC50,[18],> 30 µM (not active)
same,CC50,[19],12.2 µM (active)
same,CC50,[20],11.5 µM (active)
same,IC50,[21],> 80 µM (inactive)
same,EC50,[22],3.5 µM (active)
same,EC50,[23],3.05 µM (active)
